From patent US20260265329A1, “POLYPEPTIDE AND DERIVATIVE THEREOF, COMPOSITION, AND USE THEREOF” (HANGZHOU SCIWIND BIOSCIENCES CO., LTD., priority 2023, published 2026)
Starred links: 1 amine or outer side, 2 acyl side, 3 side chain; linkers in the order of their positions; H or OH if unused. Non-standard residues stand in square brackets, D forms with d. Residues, ends and D or L forms follow the SMILES beside them. *: point of attachment. C20 diacid = O=C(O)CCCCCCCCCCCCCCCCCCC(=O)*; C18 diacid = O=C(O)CCCCCCCCCCCCCCCCC(=O)*; γGlu = O=C(O)[C@H](CCC(=O)[*:2])N[*:1]; Hyp = O=C(O)[C@@H]1C[C@@H](O)CN1; AEEA = NCCOCCOCC(=O)O; Inp = O=C(O)C1CCNCC1

Target: T1, human amylin receptors (Homo sapiens, UniProt O60896+P30988)
T1 construct: host or cells: CHO-K1/Ga15/AMY3 cells, further stably transfected with a CRE-luciferase plasmid
T1 sequence (P30988 25-474): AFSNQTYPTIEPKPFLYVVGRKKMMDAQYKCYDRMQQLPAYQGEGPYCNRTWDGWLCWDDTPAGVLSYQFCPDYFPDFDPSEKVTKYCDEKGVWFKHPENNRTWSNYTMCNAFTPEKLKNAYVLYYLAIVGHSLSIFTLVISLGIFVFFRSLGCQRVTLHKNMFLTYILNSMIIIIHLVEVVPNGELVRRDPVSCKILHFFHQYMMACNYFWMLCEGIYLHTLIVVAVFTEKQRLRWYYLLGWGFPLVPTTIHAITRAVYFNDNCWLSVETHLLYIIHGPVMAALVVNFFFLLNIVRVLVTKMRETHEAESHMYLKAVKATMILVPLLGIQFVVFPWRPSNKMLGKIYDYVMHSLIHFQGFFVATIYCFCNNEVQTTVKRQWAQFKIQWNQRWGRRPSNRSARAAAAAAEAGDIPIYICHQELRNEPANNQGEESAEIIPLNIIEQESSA
T1 sequence (O60896 24-148 partner): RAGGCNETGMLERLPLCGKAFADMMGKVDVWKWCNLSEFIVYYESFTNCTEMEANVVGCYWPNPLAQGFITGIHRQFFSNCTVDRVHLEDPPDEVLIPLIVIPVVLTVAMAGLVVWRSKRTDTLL
Test: Luciferase assay in stably transfected amylin receptor/CRE-luc CHO cell line
Assay type: cell-based
Conditions: for Relative activity: EC50 ratio of Cagrilintide to the compound, Cagrilintide 100%; for EC50: amylin receptor/CRE-luc CHO cells, 24 hours incubation, luminescence
Description: The objective of this assay is to test the potency of derivatives of polypeptides of the present application on human amylin receptors in vitro using a luciferase assay. Using the standard protocol, CHO-K1/Ga15/AMY3 cells (purchased from GenScript, with the calcitonin receptor and the receptor activity modifying peptide (RAMP) constructed already) were transfected with a plasmid containing a luciferase expression cassette driven by multiple copies of cAMP response elements (CREs). The cells were cultured in an F12 medium containing 200 μg/mL Zeocin, 2 μg/mL puromycin, 100 μg/mL hygromycin, and 400 μg/mL G418 to afford a stably transfected amylin receptor/CRE-luc cell line. The lyophilized powder from Example 1 was dissolved in 20 mM phosphate buffer solution with a pH of 7.0, and diluted in a growth medium (F12 culture medium containing 10% FBS) to give a derivative sample with an initial concentration of 10 nM, which was then subjected to a 5-fold serial dilution in the growth medium to obtain seven samples with concentrations between […]. In each well of a white 96-well plate, 50 μL of the tested sample solution was added with a corresponding concentration. The stably transfected amylin receptor/CRE-luc CHO cells were resuspended in the growth medium at a certain density, and 50 μL of the cell suspension was added at a density of about 20000 cells per well to the white 96-well plate containing the tested sample solution. After incubation of 24 hours at 37° C. and 5% CO2, 100 μL of a Luciferase substrate was added to each well, incubated for 3 minutes, and finally was tested for luminescence on SpectraMax L (Molecular Devices) with the software SoftMax Pro 7.0.3 GxP.

SMILES	Relative activity [%]	EC50 [nM]
CC[C@H](C)[C@H](NC(=O)[C@H](CC(=O)O)NC(=O)[C@H](CCCNC(=N)N)NC(=O)[C@H](CC(=O)O)NC(=O)[C@H](CCCNC(=N)N)NC(=O)[C@H](CC(=O)O)NC(=O)[C@@H](NC(=O)[C@H](Cc1ccccc1)NC(=O)[C@H](Cc1c[nH]cn1)NC(=O)[C@H](CCCNC(=N)N)NC(=O)[C@H](CC(C)C)NC(=O)[C@H](Cc1ccccc1)NC(=O)[C@H](CC(=O)O)NC(=O)[C@H](C)NC(=O)[C@H](CC(C)C)NC(=O)[C@H](CCCNC(=N)N)NC(=O)CNC(=O)[C@H](CC(C)C)NC(=O)[C@H](C)NC(=O)[C@H](C)NC(=O)[C@@H](NC(=O)[C@H](CO)NC(=O)[C@H](CC(C)C)NC(=O)[C@H](CCC(=O)O)NC(=O)[C@H](CO)NC(=O)[C@H](C)NC(=O)CC[C@H](NC(=O)CCCCCCCCCCCCCCCCCCC(=O)O)C(=O)O)[C@@H](C)O)[C@@H](C)O)C(=O)N[C@@H](CC(C)C)C(=O)N1CCC[C@H]1C(=O)N1CCC[C@H]1C(=O)N[C@H](C(=O)N[C@@H](CC(N)=O)C(=O)N[C@H](C(=O)NCC(=O)N[C@@H](CO)C(=O)N[C@@H](CC(N)=O)C(=O)N[C@H](C(=O)N1CCC[C@H]1C(N)=O)[C@@H](C)O)C(C)C)[C@@H](C)O [M3] ({C20 diacid-γGlu}-ASELSTAALGRLADFLRHFTDRDRDILPPTNVGSNTP-NH2)	32	0.081
CC[C@H](C)[C@H](NC(=O)[C@@H]1CCCN1C(=O)[C@H](CCCCN)NC(=O)[C@H](CC(C)C)NC(=O)[C@H](CC(N)=O)NC(=O)[C@H](CC(N)=O)NC(=O)[C@H](CO)NC(=O)[C@H](CO)NC(=O)[C@H](Cc1c[nH]cn1)NC(=O)[C@H](CCCNC(=N)N)NC(=O)[C@H](CC(C)C)NC(=O)[C@H](Cc1ccccc1)NC(=O)[C@H](CC(=O)O)NC(=O)[C@H](C)NC(=O)[C@H](CC(C)C)NC(=O)[C@H](CCCNC(=N)N)NC(=O)[C@H](CCC(N)=O)NC(=O)[C@@H](NC(=O)[C@H](C)NC(=O)[C@H](C)NC(=O)[C@@H](NC(=O)[C@H](CO)NC(=O)[C@H](CC(C)C)NC(=O)[C@H](CCC(N)=O)NC(=O)[C@H](CO)NC(=O)[C@H](C)NC(=O)COCCOCCNC(=O)COCCOCCNC(=O)[C@H](CCC(=O)O)NC(=O)CCCCCCCCCCCCCCCCCCC(=O)O)[C@@H](C)O)[C@@H](C)O)C(=O)N[C@@H](CC(C)C)C(=O)N1CCC[C@H]1C(=O)N1CCC[C@H]1C(=O)N[C@H](C(=O)N[C@@H](CC(N)=O)C(=O)N[C@H](C(=O)NCC(=O)N[C@@H](CO)C(=O)N[C@@H](CC(N)=O)C(=O)N[C@H](C(=O)N1C[C@H](O)C[C@H]1C(N)=O)[C@@H](C)O)C(C)C)[C@@H](C)O [M32] ({C20 diacid}-E[AEEA][AEEA]ASQLSTAATQRLADFLRHSSNNLKPILPPTNVGSNT[Hyp]-NH2)	44	0.115
CC[C@H](C)[C@H](NC(=O)[C@@H]1CCCN1C(=O)[C@H](CCCCN)NC(=O)[C@H](CC(C)C)NC(=O)[C@H](CC(N)=O)NC(=O)[C@H](CC(N)=O)NC(=O)[C@H](CO)NC(=O)[C@H](CO)NC(=O)[C@H](Cc1c[nH]cn1)NC(=O)[C@H](CCCNC(=N)N)NC(=O)[C@H](CC(C)C)NC(=O)[C@H](Cc1ccccc1)NC(=O)[C@H](CC(=O)O)NC(=O)[C@H](C)NC(=O)[C@H](CC(C)C)NC(=O)[C@H](CCCNC(=N)N)NC(=O)[C@H](CCC(N)=O)NC(=O)[C@@H](NC(=O)[C@H](C)NC(=O)[C@H](C)NC(=O)[C@@H](NC(=O)[C@H](CO)NC(=O)[C@H](CC(C)C)NC(=O)[C@H](CCC(N)=O)NC(=O)[C@H](CO)NC(=O)[C@H](C)NC(=O)COCCOCCNC(=O)COCCOCCNC(=O)C1CCN(C(=O)CCCCCCCCCCCCCCCCCCC(=O)O)CC1)[C@@H](C)O)[C@@H](C)O)C(=O)N[C@@H](CC(C)C)C(=O)N1CCC[C@H]1C(=O)N1CCC[C@H]1C(=O)N[C@H](C(=O)N[C@@H](CC(N)=O)C(=O)N[C@H](C(=O)NCC(=O)N[C@@H](CO)C(=O)N[C@@H](CC(N)=O)C(=O)N[C@H](C(=O)N1C[C@H](O)C[C@H]1C(N)=O)[C@@H](C)O)C(C)C)[C@@H](C)O [M36] ({C20 diacid-Inp-AEEA-AEEA}-ASQLSTAATQRLADFLRHSSNNLKPILPPTNVGSNT[Hyp]-NH2)	–	0.059

These reach a lower EC50. Values come first.

Relative activity [%]	EC50 [nM]	SMILES
78	0.034	CC[C@H](C)[C@H](NC(=O)[C@H](CC(=O)O)NC(=O)[C@H](CCCNC(=N)N)NC(=O)[C@H](CC(=O)O)NC(=O)[C@H](CCCNC(=N)N)NC(=O)[C@H](CC(=O)O)NC(=O)[C@@H](NC(=O)[C@H](Cc1ccccc1)NC(=O)[C@H](Cc1c[nH]cn1)NC(=O)[C@H](CCCNC(=N)N)NC(=O)[C@H](CC(C)C)NC(=O)[C@H](Cc1ccccc1)NC(=O)[C@H](CC(=O)O)NC(=O)[C@H](C)NC(=O)[C@H](CC(C)C)NC(=O)[C@H](CCCNC(=N)N)NC(=O)[C@H](CCC(N)=O)NC(=O)[C@@H](NC(=O)[C@H](C)NC(=O)[C@H](C)NC(=O)[C@@H](NC(=O)[C@H](CO)NC(=O)[C@H](CC(C)C)NC(=O)[C@H](CCC(N)=O)NC(=O)[C@H](CO)NC(=O)[C@H](C)NC(=O)[C@H](CC(=O)O)NC(=O)CCCCCCCCCCCCCCCCCCC(=O)O)[C@@H](C)O)[C@@H](C)O)[C@@H](C)O)C(=O)N[C@@H](CC(C)C)C(=O)N1CCC[C@H]1C(=O)N1CCC[C@H]1C(=O)N[C@H](C(=O)N[C@@H](CC(N)=O)C(=O)N[C@H](C(=O)NCC(=O)N[C@@H](CO)C(=O)N[C@@H](CC(N)=O)C(=O)N[C@H](C(=O)N1CCC[C@H]1C(N)=O)[C@@H](C)O)C(C)C)[C@@H](C)O [M13] ({C20 diacid}-DASQLSTAATQRLADFLRHFTDRDRDILPPTNVGSNTP-NH2)
184	0.03	CC[C@H](C)[C@H](NC(=O)[C@@H]1CCCN1C(=O)[C@H](CCCCN)NC(=O)[C@H](CC(C)C)NC(=O)[C@H](CC(N)=O)NC(=O)[C@H](CC(N)=O)NC(=O)[C@H](CO)NC(=O)[C@H](CO)NC(=O)[C@H](Cc1c[nH]cn1)NC(=O)[C@H](CCCNC(=N)N)NC(=O)[C@H](CC(C)C)NC(=O)[C@H](Cc1ccccc1)NC(=O)[C@H](CC(=O)O)NC(=O)[C@H](C)NC(=O)[C@H](CC(C)C)NC(=O)[C@H](CCCNC(=N)N)NC(=O)[C@H](CCC(N)=O)NC(=O)[C@@H](NC(=O)[C@H](C)NC(=O)[C@H](C)NC(=O)[C@@H](NC(=O)[C@H](CO)NC(=O)[C@H](CC(C)C)NC(=O)[C@H](CCC(N)=O)NC(=O)[C@H](CO)NC(=O)[C@H](C)NC(=O)CC[C@H](NC(=O)CCCCCCCCCCCCCCCCC(=O)O)C(=O)O)[C@@H](C)O)[C@@H](C)O)C(=O)N[C@@H](CC(C)C)C(=O)N1CCC[C@H]1C(=O)N1CCC[C@H]1C(=O)N[C@H](C(=O)N[C@@H](CC(N)=O)C(=O)N[C@H](C(=O)NCC(=O)N[C@@H](CO)C(=O)N[C@@H](CC(N)=O)C(=O)N[C@H](C(=O)N1C[C@H](O)C[C@H]1C(N)=O)[C@@H](C)O)C(C)C)[C@@H](C)O [M37] ({C18 diacid-γGlu}-ASQLSTAATQRLADFLRHSSNNLKPILPPTNVGSNT[Hyp]-NH2)
81	0.03	CC[C@H](C)[C@H](NC(=O)[C@H](CC(=O)O)NC(=O)[C@H](CCCNC(=N)N)NC(=O)[C@H](CC(=O)O)NC(=O)[C@H](CCCNC(=N)N)NC(=O)[C@H](CC(=O)O)NC(=O)[C@@H](NC(=O)[C@H](Cc1ccccc1)NC(=O)[C@H](Cc1c[nH]cn1)NC(=O)[C@H](CCCNC(=N)N)NC(=O)[C@H](CC(C)C)NC(=O)[C@H](Cc1ccccc1)NC(=O)[C@H](CC(=O)O)NC(=O)[C@H](C)NC(=O)[C@H](CC(C)C)NC(=O)[C@H](CCCNC(=N)N)NC(=O)[C@H](CCC(N)=O)NC(=O)[C@@H](NC(=O)[C@H](C)NC(=O)[C@H](C)NC(=O)[C@@H](NC(=O)[C@H](CO)NC(=O)[C@H](CC(C)C)NC(=O)[C@H](CCC(N)=O)NC(=O)[C@H](CO)NC(=O)[C@H](C)NC(=O)C1CCN(C(=O)CCCCCCCCCCCCCCCCCCC(=O)O)CC1)[C@@H](C)O)[C@@H](C)O)[C@@H](C)O)C(=O)N[C@@H](CC(C)C)C(=O)N1CCC[C@H]1C(=O)N1CCC[C@H]1C(=O)N[C@H](C(=O)N[C@@H](CC(N)=O)C(=O)N[C@H](C(=O)NCC(=O)N[C@@H](CO)C(=O)N[C@@H](CC(N)=O)C(=O)N[C@H](C(=O)N1CCC[C@H]1C(N)=O)[C@@H](C)O)C(C)C)[C@@H](C)O [M15] ({C20 diacid-Inp}-ASQLSTAATQRLADFLRHFTDRDRDILPPTNVGSNTP-NH2)
